Source: US6670371B2, “Certain pyrrolopyridine derivatives: novel CRF1 specific ligands” (Neurogen Corporation, priority 1995, dated 2003)

Experiments:
CRF receptors = target: T1, CRF receptors (Homo sapiens, UniProt P34998); assay: CRF receptor binding assay (125I-CRF displacement); conditions: membrane pellets containing CRF receptors; 125I-CRF 100 pM; room temperature for 2 hours; non specific binding defined by 1 uM cold CRF
T1 sequence (P34998 24-415): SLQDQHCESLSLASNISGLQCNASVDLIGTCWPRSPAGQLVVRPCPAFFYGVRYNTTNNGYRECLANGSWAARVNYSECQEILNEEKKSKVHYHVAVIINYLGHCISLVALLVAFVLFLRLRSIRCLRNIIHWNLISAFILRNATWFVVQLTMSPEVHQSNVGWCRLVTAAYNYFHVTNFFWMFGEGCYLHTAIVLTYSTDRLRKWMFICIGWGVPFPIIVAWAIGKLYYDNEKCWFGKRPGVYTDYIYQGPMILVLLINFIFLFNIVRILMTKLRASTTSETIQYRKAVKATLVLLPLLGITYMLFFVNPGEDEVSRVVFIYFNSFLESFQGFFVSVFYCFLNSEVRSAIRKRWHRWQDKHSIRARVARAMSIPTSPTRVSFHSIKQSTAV
Description: Assay for CRF Receptor Binding Activity
CRF receptor binding was performed using a modified version of the assay described by Grigoriadis and De Souza (Biochemical, Pharmacological, and Autoradiographic Methods to Study Corticotropin-Releasing Factor Receptors. Methods in Neurosciences, Vol. 5, 1991). Membrane pellets containing CRF receptors were resuspended in 50 mM Tris buffer pH 7.7 containing 10 mM MgCl2 and 2 mM EGTA and centrifuged for 10 minutes at 48000 g. Membranes were washed again and brought to a final concentration of 1500 ug/ml in binding buffer (Tris buffer above with 0.1% BSA, n 0.15 M bacitracin and 0.01 mg/ml aprotinin.). For the binding assay, 100 ul of the membrane preparation was added to 96 well microtube plates containing 100 ul of 125I-CRF (SA 2200 Ci/mmol, final concentration of 100 pM) and 50 ul of drug. Binding was carried out at room temperature for 2 hours. Plates were then harvested on a Brandel 96 well cell harvester and filters were counted for gamma emissions on a Wallac 1205 Betaplate liquid scintillation counter. Non specific binding was defined by 1 uM cold CRF.

IC50 (CRF receptors): 11 nM
melting point: 117 to 118 °C
SMILES: CCCN(CCC)c1cc(C)nc2c1c1c(n2-c2c(C)cc(C)cc2C)CCCC1 [Compound 1, N,N-Dipropyl-2-methyl-6,7,8,9-tetrahydro-9-(2,4,6-trimethylphenyl)-5H-pyrido[2,3-b]indol-4-amine]
